Test results as given in the NIST ThermoML archive (doi:10.1021/je700645p).

Experiments:
[1] = xn = mol fraction of the nth substance listed; details: 81.5 kPa, Liquid
[2] = 81.5 kPa, Liquid
[3] = refractive index (Na D-line) (dimensionless); details: 298.15 K; 81.5 kPa; Liquid; Standard Abbe refractometry

O [water] + C[S+](C)[O-]
[1], x1 = 1
Details	mass density [kg/m3]
323.15 K	988.03
333.15 K	983.19

C[S+](C)[O-] [dimethyl sulfoxide] + CC#N
mass density [kg/m3], [1]
Details	293.15 K	303.15 K	313.15 K	323.15 K	333.15 K
x2 = 0	1100.41	1090.37	1080.34	1070.3	1060.27
x2 = 0.0563	1087.32	1077.27	1067.22	1057.17	1047.11
x2 = 0.1195	1072.32	1062.27	1052.21	1042.11	1032.03
x2 = 0.1751	1058.54	1048.48	1038.38	1028.38	1018.15
x2 = 0.2996	1025.83	1015.69	1005.54	995.35	985.14
x2 = 0.3723	1005.56	995.38	985.18	974.94	964.64
x2 = 0.4529	981.91	971.68	961.4	951.09	940.71
x2 = 0.5273	959	948.69	938.36	927.96	917.5
x2 = 0.579	942.39	932.08	921.68	911.22	900.68
x2 = 0.6896	904.94	894.48	883.96	873.36	862.66
x2 = 0.7579	880.41	869.88	859.27	848.57	837.77
x2 = 0.8337	851.62	841	830.29	819.48	808.55
x2 = 0.933	811.3	800.6	789.76	778.79	767.68

CC#N [acetonitrile] + C[S+](C)[O-]
[1], x1 = 1
Details	mass density [kg/m3]
293.15 K	781.97
303.15 K	771.15
313.15 K	760.2
323.15 K	749.12
333.15 K	737.87

CC#N [acetonitrile]
[2]
Details	mass density [kg/m3]
293.15 K	781.97
303.15 K	771.15
313.15 K	760.2
323.15 K	749.12
333.15 K	737.87

Details	refractive index
[3]	1.3417

O [water] + CC#N
[1], x1 = 1
Details	mass density [kg/m3]
323.15 K	988.03
333.15 K	983.19

C[S+](C)[O-] [dimethyl sulfoxide] + O
mass density [kg/m3], [1]
Details	293.15 K	303.15 K	313.15 K	323.15 K	333.15 K
x2 = 0	1100.41	1090.37	1080.34	1070.3	1060.27
x2 = 0.0568	1100.94	1090.97	1081.01	1071.03	1061.04
x2 = 0.1605	1101.91	1092.1	1082.26	1072.41	1062.5
x2 = 0.2252	1102.54	1092.83	1083.1	1073.32	1063.49
x2 = 0.3187	1103.26	1093.73	1084.18	1074.52	1064.79
x2 = 0.3953	1103.54	1094.31	1084.89	1075.37	1065.74
x2 = 0.4582	1103.48	1094.25	1084.95	1075.54	1066
x2 = 0.5473	1102.05	1093.11	1084.03	1074.8	1065.41
x2 = 0.6473	1097.2	1088.67	1079.97	1071.08	1062
x2 = 0.7213	1089.55	1081.52	1073.28	1064.82	1056.12
x2 = 0.7997	1075.48	1068.31	1060.87	1053.13	1045.11
x2 = 0.8828	1051.12	1045.47	1039.4	1032.81	1024.92
x2 = 0.9632	1016.98	1013.46	1009.19	1003.92	998.73

C[S+](C)[O-] [dimethyl sulfoxide]
[2]
Details	mass density [kg/m3]
293.15 K	1100.41
303.15 K	1090.37
313.15 K	1080.34
323.15 K	1070.3
333.15 K	1060.27

Details	refractive index
[3]	1.4767

CC#N [acetonitrile] + O
mass density [kg/m3], [1]
Details	293.15 K	303.15 K	313.15 K	323.15 K	333.15 K
x2 = 0	781.97	771.15	760.2	749.12	737.87
x2 = 0.0417	785.6	774.79	763.85	752.77	741.52
x2 = 0.0833	789.62	778.83	767.91	756.84	745.6
x2 = 0.1568	797.67	786.95	776.09	765.06	753.85
x2 = 0.2095	804.01	793.33	782.6	771.62	760.47
x2 = 0.3247	819.96	809.63	799.11	788.38	777.43
x2 = 0.4127	834.27	824.27	814.05	803.6	792.91
x2 = 0.496	849.71	840.11	830.25	820.14	809.77
x2 = 0.5704	864.78	855.57	846.08	836.32	826.29
x2 = 0.6361	880.12	871.32	862.22	852.82	843.13
x2 = 0.7201	902.94	894.74	886.22	877.38	868.22
x2 = 0.7961	926.99	919.47	911.61	903.39	894.84
x2 = 0.8788	956.73	950.35	943.52	936.28	928.67
x2 = 0.9573	984.72	980.43	975.45	969.87	963.64
